Assay [1] addresses human dopamine transporter (DAT) (Homo sapiens (Human), UniProt Q01959). Description: Scintillation Proximity Assay (SPA) for human DAT binding ([3H]WIN-35,428). The note with it: recombinant human DAT, CHO. From the text:
(§1) Affinity is expressed in terms of inhibition constant (Ki) of the compounds of the invention for DAT, NET and SERT, and it is typically calculated from the IC50 values obtained in competition experiments using Cheng and Prusoff equation (Cheng and Prusoff, Biochem. Pharmacol. 22:3099, 1973). In the context of the present invention pKi values (corresponding to the antilogarithm of Ki) are used instead of Ki; pKi are only estimated to be accurate to about 0.3 log unit.
(§2) Chinese Hamster Ovary (CHO) cells stably expressing either human DAT (hDAT-CHO) or human NET (hNET-CHO) or human SERT (hSERT-CHO) are used for the membrane preparations for radioligand binding assays using Scintillation proximity Assay (SPA) technique. Each cell line is cultured independently in F-12K Nutrient Mixture containing 10% of Fetal Bovine Serum (FBS) supplemented with 450 μg/ml G-418. When cells are at 70-80% of confluence 3 mM Na Butyrate was added to the cell culture medium. After 24 h of incubation, the culture medium was removed and the cells detached with Versene (DAT) or by scraping (NET and SERT). Cell suspension is centrifuged at 41,000 g for 10 minutes at 4° C. The resultant pellets are re-suspended in 15 volumes of Ice-cold buffer (20 mM HEPES, 145 mM NaCl, 5 mM KCl, pH7.3), homogenized using an Ultra Turrax homogeniser and centrifuged as before. The resultant membrane pellets are re-suspended in up to 15 volume of ice-cold buffer, incubated for 20 minutes at 37° C and centrifuged as before at 41,000 g. The final membrane pellets are re-suspended into 5-10 volumes of ice-cold buffer, dispensed into 0.5 ml aliquots and stored at −80° C. until use. Protein concentration for each preparation is determined using Bio-Rad Protein Assay Kit.
(§3) The affinity of the compounds of the invention to the human DAT or NET or SERT transporters is assessed by using the [^3H]WIN-35,428 or [^3H]nisoxetine or [^3H]citalopram binding assays in recombinant human DAT, NET and SERT membranes with the SPA technology. The final assay volume is 50 μL in 384 well plates.
(§4) Briefly, 0.5 μL of test compound in neat DMSO or 0.5 μL of DMSO for total binding (TB) or 0.5 μL of indatraline 1 mM (10 μM final concentration) for non specific binding (NSB) are added to the assay plate. 50 μL of the SPA mixture is added to each well, containing: 30 μg/mL or 10 μg/mL or 25 μg/mL DAT, NET, SERT membranes, respectively; 5 nM [^3H]WIN-35,428 or 5 nM [^3H]nisoxetine or 1 nM [^3H]citalopram, for DAT, NET, SERT assay, respectively; 2.5 mg/mL or 1 mg/mL or 4 mg/mL WGA-PVT SPA beads (PerkinElmer RPNQ0001, for DAT, NET, SERT assay, respectively. All components are added to Assay Buffer (20 mM HEPES pH 7.4, 145 mM NaCl, 5 mM KCl, 0.01% Pluronic F-127). 0.02% BSA was used for DAT binding only. Plates are sealed with Topseal A and centrifuged 1 min, 800 rpm. Plates are loaded into a 1450 Microbeta TriLux (Perkin-Elmer) plate reader and the radioactivity counted after at least 4 hrs or overnight incubation at room temperature. Curve fitting and IC50 estimations are performed using a four parameter model in XLfit (IDBS, Guilford, UK) for Microdoft Excel (Microsoft, Redmond, Wash.).
The potency of the compounds of the invention in blocking the DAT function is measured using an uptake assay in a recombinant CHO cell line expressing human DAT (hDAT-CHO). Potency is measured in terms of pIC50 by testing the compounds of invention for the inhibition of [^3H]-dopamine uptake in DAT-CHO cells using a SPA technology in 384 well format.
Briefly, on the days of the experiment hDAT-CHO cells are detached using Versene and added (75,000 cells/mL) to the SPA Mixture, which contains the following components in Assay Buffer (20 mM HEPES, 145 mM NaCl, 5 mM KCl, 2 mM CaCl2, 1 mM MgCl2 and 1 g/L glucose, pH 7.3): 0.02% w/v of Pluronic F127, 2 mg/mL SPA Imaging beads (RPNQ0260, PerkinElmer), 10 μM pargyline and 80 nM of [^3H]-dopamine. […]

Assay [2] has as its target human serotonin transporter (SERT) (Homo sapiens (Human), UniProt P31645). The assay is described as follows: Scintillation Proximity Assay (SPA) for human SERT binding ([3H]citalopram). The note with it: recombinant human SERT, CHO membranes.
Description: as §1, §2, §3, §4
(Scintillation proximity formats need no separation of bound from free tracer.)

For assay [3], the target named is human norepinephrine transporter (NET) (Homo sapiens (Human), UniProt P23975). The assay is described as follows: Scintillation Proximity Assay (SPA) for human NET binding ([3H]nisoxetine). The note with it: recombinant human NET, CHO membranes.
Chain of human norepinephrine transporter (NET) (P23975 whole entry): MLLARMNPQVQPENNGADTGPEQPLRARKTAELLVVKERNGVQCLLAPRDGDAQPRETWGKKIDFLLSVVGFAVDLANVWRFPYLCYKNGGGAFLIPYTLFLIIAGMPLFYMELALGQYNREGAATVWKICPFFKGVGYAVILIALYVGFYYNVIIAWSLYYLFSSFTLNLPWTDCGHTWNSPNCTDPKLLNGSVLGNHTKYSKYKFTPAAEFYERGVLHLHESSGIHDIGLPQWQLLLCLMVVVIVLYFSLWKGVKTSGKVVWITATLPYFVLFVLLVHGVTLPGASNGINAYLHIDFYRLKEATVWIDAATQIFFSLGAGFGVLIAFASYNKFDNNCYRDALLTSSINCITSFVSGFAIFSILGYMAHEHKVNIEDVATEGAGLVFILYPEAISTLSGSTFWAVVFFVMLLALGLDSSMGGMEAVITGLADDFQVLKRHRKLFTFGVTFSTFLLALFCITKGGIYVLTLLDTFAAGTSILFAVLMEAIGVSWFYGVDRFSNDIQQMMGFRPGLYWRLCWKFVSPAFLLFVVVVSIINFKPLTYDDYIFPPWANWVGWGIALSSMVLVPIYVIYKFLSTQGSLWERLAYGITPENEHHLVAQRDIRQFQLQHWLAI
Description: as §1, §2, §3, §4

Chain of human dopamine transporter (DAT) (Q01959 whole entry): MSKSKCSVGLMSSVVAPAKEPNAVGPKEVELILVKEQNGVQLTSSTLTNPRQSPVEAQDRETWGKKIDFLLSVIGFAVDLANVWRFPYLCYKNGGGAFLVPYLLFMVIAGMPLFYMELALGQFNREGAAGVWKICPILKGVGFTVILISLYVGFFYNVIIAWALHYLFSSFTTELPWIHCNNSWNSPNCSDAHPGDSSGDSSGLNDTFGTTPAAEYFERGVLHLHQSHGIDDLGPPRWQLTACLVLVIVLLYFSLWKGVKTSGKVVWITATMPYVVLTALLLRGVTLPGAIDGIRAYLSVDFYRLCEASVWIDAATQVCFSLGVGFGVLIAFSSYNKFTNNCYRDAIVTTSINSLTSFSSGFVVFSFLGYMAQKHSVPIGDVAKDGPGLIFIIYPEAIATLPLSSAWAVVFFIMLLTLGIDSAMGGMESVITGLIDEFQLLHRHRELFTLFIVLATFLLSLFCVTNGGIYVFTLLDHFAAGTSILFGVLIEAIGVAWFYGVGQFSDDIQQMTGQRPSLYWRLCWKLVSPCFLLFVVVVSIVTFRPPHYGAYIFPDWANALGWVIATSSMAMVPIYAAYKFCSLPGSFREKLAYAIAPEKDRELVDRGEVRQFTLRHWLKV
Chain of human serotonin transporter (SERT) (P31645 whole entry): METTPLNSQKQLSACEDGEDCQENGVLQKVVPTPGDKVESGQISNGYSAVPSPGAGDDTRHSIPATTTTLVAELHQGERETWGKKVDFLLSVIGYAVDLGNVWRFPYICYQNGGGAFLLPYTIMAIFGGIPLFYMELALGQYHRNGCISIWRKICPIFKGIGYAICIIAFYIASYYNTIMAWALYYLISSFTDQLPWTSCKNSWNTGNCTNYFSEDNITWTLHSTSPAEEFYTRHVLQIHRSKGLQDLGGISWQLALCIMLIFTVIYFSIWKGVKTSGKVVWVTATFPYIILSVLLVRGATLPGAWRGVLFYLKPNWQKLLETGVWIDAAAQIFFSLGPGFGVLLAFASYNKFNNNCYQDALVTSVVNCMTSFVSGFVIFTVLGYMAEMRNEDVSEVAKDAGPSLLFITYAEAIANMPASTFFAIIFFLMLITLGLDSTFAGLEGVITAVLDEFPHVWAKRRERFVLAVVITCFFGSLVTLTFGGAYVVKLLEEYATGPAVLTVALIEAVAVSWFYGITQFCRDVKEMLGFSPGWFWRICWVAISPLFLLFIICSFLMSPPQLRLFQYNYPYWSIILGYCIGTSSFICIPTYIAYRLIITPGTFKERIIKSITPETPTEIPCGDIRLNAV

`CC(C)(C)NCC1(O)CCN(c2nc(Oc3cccc(F)c3)cc(C(F)(F)F)n2)CC1` [Example 9, 4-[(tert-butylamino)methyl]-1-[4-(3-fluorophenoxy)-6-(trifluoromethyl)pyrimidin-2-yl]piperidin-4-ol]: the “pIC50 DAT” value in assay [1] is listed as 7.91. Further, the IC50 – broadly, the concentration at which inhibition is half-maximal – in assay [2] is 11.2 µM. Further, the “pIC50 NET” value in assay [3] turned out to be 6.02.

For `NC1(CO)CCN(c2nc(Oc3cccc(F)c3)cc(C(F)(F)F)n2)CC1` [Example 20, {4-amino-1-[4-(3-fluorophenoxy)-6-(trifluoromethyl)pyrimidin-2-yl]piperidin-4-yl}methanol], in assay [1], the “pIC50 DAT” value was 8.39. The IC50 in assay [2] was 5.13 µM. Also, the “pIC50 NET” value in assay [3] is 6.50.

Consider `NCC1(O)CCN(c2cc(F)cc(Oc3cccc(F)c3)c2)CC1` [Example 14, 4-(aminomethyl)-1-[3-fluoro-5-(3-fluorophenoxy)phenyl]piperidin-4-ol], for which, in assay [1], the “pIC50 DAT” value is given as 8.82. In addition, the IC50 in assay [2] is 0.603 µM. Further, the “pIC50 NET” value in assay [3] is reported as 6.93.

As for `O=C(CC1CC1)NCC1(O)CCN(c2nc(Oc3cccc(F)c3)cc(C(F)(F)F)n2)CC1` [Example 22, 2-cyclopropyl-N-({1-[4-(3-fluorophenoxy)-6-(trifluoromethyl)pyrimidin-2-yl]-4-hydroxypiperidin-4-yl}methyl)acetamide], in assay [1], the “pIC50 DAT” value is given as 7.58. Further, in assay [2], the IC50 was more than 100 µM. Moreover, the “pIC50 NET” value in assay [3] is 5.76.

Regarding `NCC1(O)CCN(c2cccc(Oc3ccccc3)c2F)CC1` [Example 16, 4-(aminomethyl)-1-(2-fluoro-3-phenoxyphenyl)piperidin-4-ol], the “pIC50 DAT” value in assay [1] was found to be 7.81. Besides, in assay [2], the IC50 was 1.45 µM. Further, in assay [3], the “pIC50 NET” value came out at 6.01.

Turning to “(3R or 3S)-3-[(cyclopropylamino)methyl]-1-[4-(3-fluorophenoxy)-6-(trifluoromethyl)pyrimidin-2-yl]pyrrolidin-3-ol [Example 32]”, the “pIC50 DAT” value in assay [1] is given as 8.47. The “pIC50 SERT” value in assay [2] was 4.36. In addition, in assay [3], the “pIC50 NET” value turned out to be 6.63.

In the case of `CC(C)C(=O)NCC1(O)CCN(c2nc(Oc3cccc(F)c3)cc(C(F)(F)F)n2)C1` (stereo not drawn) [Example 34, N-({1-[4-(3-fluorophenoxy)-6-(trifluoromethyl)pyrimidin-2-yl]-3-hydroxypyrrolidin-3-yl}methyl)-2-methylpropanamide], the “pIC50 DAT” value in assay [1] is on record as 6.50. In assay [2], the IC50 was more than 100 µM. In addition, the “pIC50 NET” value in assay [3] came out at 4.72.

Consider `Cl.NCC1(O)CCN(c2nc(Oc3cccc(F)c3)cc(C(F)(F)F)n2)CC1` [Example 12, 4-(aminomethyl)-1-[4-(3-fluorophenoxy)-6-(trifluoromethyl)pyrimidin-2-yl]piperidin-4-ol hydrochloride], for which the “pIC50 DAT” value in assay [1] is on record as 8.56. For the same molecule, the IC50 in assay [2] is 8.71 µM. Also, in assay [3], the “pIC50 NET” value was 6.84.

Regarding `CC(=O)NCC1(O)CCN(c2nc(Oc3cccc(F)c3)cc(C(F)(F)F)n2)CC1` [Example 24, N-({1-[4-(3-fluorophenoxy)-6-(trifluoromethyl)pyrimidin-2-yl]-4-hydroxypiperidin-4-yl}methyl)acetamide], the “pIC50 DAT” value in assay [1] turned out to be 7.42. Besides, the IC50 in assay [2] was more than 100 µM. In addition, the “pIC50 NET” value in assay [3] was 5.04.

Consider `O=C(NCC1(O)CCN(c2nc(Oc3cccc(F)c3)cc(C(F)(F)F)n2)C1)C1CNC1` (stereo not drawn) [Example 35, N-({1-[4-(3-fluorophenoxy)-6-(trifluoromethyl)pyrimidin-2-yl]-3-hydroxypyrrolidin-3-yl}methyl)azetidine-3-carboxamide], for which the “pIC50 DAT” value in assay [1] was determined as 8.25. Further, in assay [2], the IC50 was 33.1 µM. The “pIC50 NET” value in assay [3] is given as 6.56.

Take `CC(C)OCC(=O)NCC1(O)CCN(c2nc(Oc3cccc(F)c3)cc(C(F)(F)F)n2)CC1` [Example 23, N-({1-[4-(3-fluorophenoxy)-6-(trifluoromethyl)pyrimidin-2-yl]-4-hydroxypiperidin-4-yl}methyl)-2-(propan-2-yloxy)acetamide]: the “pIC50 DAT” value in assay [1] turned out to be 7.75. Also, in assay [2], the IC50 was more than 100 µM. Moreover, the “pIC50 NET” value in assay [3] is reported as 5.55.

Turning to `O=C1CCCN1CC1(O)CCN(c2nc(Oc3cccc(F)c3)cc(C(F)(F)F)n2)CC1` [Example 10, 1-({1-[4-(3-fluorophenoxy)-6-(trifluoromethyl)pyrimidin-2-yl]-4-hydroxypiperidin-4-yl}methyl)pyrrolidin-2-one], the “pIC50 DAT” value in assay [1] was found to be 7.18. Also, the IC50 in assay [2] is more than 100 µM. The “pIC50 NET” value in assay [3] was determined as 5.33.

Regarding `OC1(CNC2CC2)CCN(c2nc(Oc3cccc(F)c3)cc(C(F)(F)F)n2)C1` (stereo not drawn) [Example 30, 3-[(cyclopropylamino)methyl]-1-[4-(3-fluorophenoxy)-6-(trifluoromethyl)pyrimidin-2-yl]pyrrolidin-3-ol], the “pIC50 DAT” value in assay [1] was 8.72. Also, the IC50 in assay [2] is 34.7 µM. Besides, in assay [3], the “pIC50 NET” value is reported as 6.78.

For `NCC1(O)CCN(c2cc(F)cc(Oc3cccc(F)c3)c2F)CC1` [Example 15, 4-(aminomethyl)-1-[2,5-difluoro-3-(3-fluorophenoxy)phenyl]piperidin-4-ol], in assay [1], the “pIC50 DAT” value was found to be 9.04. Besides, the IC50 in assay [2] is 0.661 µM. In addition, the “pIC50 NET” value in assay [3] was 7.24.

`NCC1(O)CCN(c2cccc(Oc3cccc(F)c3)c2F)CC1` [Example 17, 4-(aminomethyl)-1-[2-fluoro-3-(3-fluorophenoxy)phenyl]piperidin-4-ol]: the “pIC50 DAT” value in assay [1] is given as 8.17. In assay [2], the IC50 is 2.09 µM. For the same molecule, the “pIC50 NET” value in assay [3] is given as 6.49.

Source of the values: patent publication US9920053B2, “N-(hetero)aryl-substituted heteroyclic derivatives useful for the treatment of diseases or conditions related to the central nervous system” (CHRONOS THERAPEUTICS LIMITED, priority 2014, dated 2018).
